Reference: publication PMC11973282, “RAS70 peptide targets multiforme glioblastoma by binding to the plasma membrane heat shock protein HSP70” (Frontiers in Oncology, 2025)

How the values were obtained:
[1] = tested on: U87 cells (lower chamber; HUVEC and astrocytes barrier); experiment: Transwell BBB model, peptide passage and accumulation in tumor cells (also with antibody pre-treatment); format: in vitro ADME, human; conditions: transwell BBB model: HUVEC (5×10^5) and astrocytes (5×10^5) in upper chamber, U87 (1×10^4) in lower chamber; FITC-labeled peptide; 36 hours; confocal microscopy count; M ± SE, 3 independent experiments
From the text: Fluorescently labeled cells were counted in the lower chamber.
Next, we assessed the mHsp70- and integrin (αvβ3, αvβ5)-mediated penetration of the TKD and RAS70 via the BBB ( Figure 9B ). […] When anti-αvβ3 and anti-αvβ5 mAbs were employed, we detected the decrease of NGL-RGD and RAS70 penetration via the BBB but not the NGL and TKD peptides.

[2] = tested on: mHsp70-negative dermal fibroblasts; experiment: Flow cytometry of FITC-labeled peptide internalization, negative control cells; format: cell-based
[3] = tested on: human glioblastoma U251 cells; experiment: Flow cytometry of FITC-labeled peptide internalization, 24 h; format: cell-based; conditions: 50 μg/mL, M ± SE, 3 independent experiments
Description: (§1) The binding of the TKD-sCy5, RAS70-sCy5, and NGL-RGD-sCy5 peptides were analyzed using a CytoFLEX flow cytometer (Beckman Coulter, USA). A single cell suspension of C6, GL261, T98G, U87, U251, ANI, IBD, TMS (0.15×10^6 cells in mL^-1) were incubated for 30 minutes on ice in the dark with peptides in concentration of 75 μg/mL, and then washed with cold PBS solution. Cells without peptides were used as controls. To evaluate incorporation of the fluorescently-labeled peptides for longer period of co-incubation of 24 h cells (C6, GL261, U87, U251) were treated with FITC-labeled peptides, then washed with PBS and assessed on a CytoFLEX flow cytometer (Beckman Coulter, USA). Following FACS analysis cell pellet was further evaluated employing confocal microscopy Leica TCS SP8 (Leica Microsystems, Germany).
(§2) The incorporation of peptides over longer periods of co-incubation with brain tumor cells was additionally analyzed using a Cytomics FC500 flow cytometer (BeckmanCoulter, USA). Tumor cells (C6, GL261, U87, U251) were incubated with peptides (concentration 50 μg/mL) for 24 hours, washed with PBS. Internalization of FITC-labeled peptides was assessed by determining the mean fluorescence intensity (MFI). According to the study data ( Figure 6A ), it was shown that TKD peptide accumulated in all cell lines – 2120 ± 152 (C6), 2099 ± 107 (GL261), 2145 ± 189 (U87), 2373 ± 201 (U251) compared to the control scramble peptide (NGL) – 378 ± 48 (C6), 344 ± 57 (GL261), 301 ± 66 (U87), 313 ± 56 (U251) (P<0.001). […] Following FACS analysis the cell pellet was collected and evaluated for peptides cell uptake employing confocal microscopy ( Figure 6B ). The obtained microscopy data confirmed higher accumulation of RAS70 peptide in studied cell lines as compared to TKD or scramble peptides.
(§3) Figure 6 Evaluation of the mHsp70-targeting peptides internalization by glioma cells. (A) Flow cytometric evaluation of FITC-labeled peptide accumulation in tumor cell lines (rat glioma C6, mouse glioma GL261, human glioblastoma U87 and U251) after co-incubation for 24 hours. […] (B) Confocal microscopy assessment of FITC-labeled peptide accumulation in tumor cell lines (rat glioma C6, mouse glioma GL261, human glioblastoma U87 and U251) after co-incubation for 24 hours. […] (C) Analysis of the peptides uptake by human U87 glioblastoma cells following co-incubation for 24 hours.

[4] = tested on: GL261 (mouse glioma) cells; experiment: as above; format: cell-based; conditions: 50 μg/mL, M ± SE, 3 independent experiments
Description: as §1, §2, §3

C6 (rat glioma) cells = experiment: as above; format: cell-based; conditions: 50 μg/mL, M ± SE, 3 independent experiments
Description: as §1, §2, §3

[5] = tested on: C6, GL261, T98G mHsp70-positive tumor cells; experiment: Confocal microscopy of peptide binding and internalization; format: cell-based; conditions: for internalization/accumulation in tumor cells by confocal microscopy: 75 μg/mL, co-incubation 15, 30 and 60 minutes
Description: The binding of the TKD-sCy5, RAS70-sCy5, and NGL-RGD-sCy5 peptides to tumor cells was visualized using the Olympus FV3000 confocal system (Olympus, Japan). The C6, GL261, T98G, ANI, IBD, TMS cells (0.1×10^6 mL^-1 cells) were placed on Nunc™ Lab-Tek™ Chamber Slide System (Thermo Fisher Scientific, USA) and kept overnight. For primary GBM cells the chambers were pre-coated with Matrigel (0.2 mg/mL, Corning, New York, USA) to increase adhesion properties. The cells were incubated with peptides at a concentration of 75 μg/mL for 15, 30, and 60 minutes on ice in the dark. After the incubation cells were washed with PBS, fixed in a 10% formalin solution (Sigma-Aldrich, Burlington, USA), and mounted using a mounting medium containing DAPI (Ibidi, Graefelfing, Germany). Unstained cells were used as controls.
To study the mechanisms of peptide internalization, cells were incubated with peptides for 30 minutes in 37°C in a 5% CO2, washed with PBS, fixed in a 10% formalin solution (Sigma-Aldrich, USA), permeabilized with 0,1% Triton-X100 solution (Servicebio, Wuhan, China), blocked with 5% bovine serum albumin solution and incubated overnight with Alexa Fluor® 488 Anti-Rab5 antibody [EPR21801] (#ab270094, abcam, USA), and with Alexa Fluor® 488 Anti-LAMP1 antibody [EPR24395-31] (#281758, abcam, USA). After 24 hours cells were washed with 0,1% Tween-20 solution (Sigma-Aldrich, Burlington, USA) and mounted using a mounting medium containing DAPI (Ibidi, Graefelfing, Germany). To study the co-localization of the peptide with endolysosomal markers the raw confocal images (n = 10 for each group) were obtained in a 3-channel, 1024 × 1024 pixel format. Colocalization coefficient (τ-Kendall rank correlation value) was computed with the Coloc2 plugin and ImageJ 1.54g ([32]).
The next step was co-incubation of the target peptide RAS70 labeled with fluorescent dye Cy5 with tumor cells for 15, 30 and 60 minutes, followed by confocal microscopy analysis. […] To exclude processes of active internalization of the peptide, co-incubation of the cells on ice at +4°C was performed. […] Next, we evaluated the targeting properties of RAS70 on primary glioblastoma cells (ANI, IBD, TMS) obtained from neuro-oncological patients ([3]) that were additionally characterized for mHsp70, SOX2, NESTIN, GFAP, β3-Tubulin, Ki-67, and CD133 ( Figures 3A–I ).

CC(C)C[C@H](NC(=O)[C@H](CC(C)C)NC(=O)[C@H](CC(N)=O)NC(=O)[C@H](CC(N)=O)NC(=O)[C@H](CC(=O)O)NC(=O)[C@H](CCCCN)NC(=O)[C@@H](N)[C@@H](C)O)C(=O)NCC(=O)N[C@@H](CCCNC(=N)N)C(=O)N[C@@H](Cc1ccccc1)C(=O)N[C@@H](CCC(=O)O)C(=O)N[C@@H](CC(C)C)C(=O)N[C@@H](CO)C(=O)NCC(=O)NCCC(=O)N[C@@H](CCCNC(=N)N)C(=O)NCC(=O)N[C@@H](CC(=O)O)C(=O)O [RAS70]
fluorescently labeled tumor cells in the lower chamber [1]: 578 ± 67 cells | accumulation of peptide in mHsp70-negative cells [2]: did not detect the accumulation | mean fluorescence intensity (MFI), internalization of FITC-labeled peptide [3]: 3678 ± 212 | mean fluorescence intensity (MFI), internalization of FITC-labeled peptide [4]: 3012 ± 182 | mean fluorescence intensity (MFI), internalization of FITC-labeled peptide (C6 (rat glioma) cells): 2671 ± 201 | co-localization with early endosome (Rab5) and lysosome (LAMP-1) markers ([5]; 30 minutes at 37°C, confocal microscopy): only partially penetrated the cell via the endolysosomal pathway | internalization/accumulation in tumor cells by confocal microscopy ([5]; Cy5-labeled peptide): higher accumulation of the peptide was detected as compared to TKD or control | subcellular localization ([5]; Cy5-labeled peptide, confocal microscopy): predominantly localized in the cytoplasm of cells without penetrating into the nuclei | penetration into cells on ice ([5]; co-incubation on ice at +4°C to exclude active internalization, data not shown): significant decrease in the penetration

CC(C)C[C@H](NC(=O)[C@H](CC(C)C)NC(=O)[C@H](CC(N)=O)NC(=O)[C@H](CC(N)=O)NC(=O)[C@H](CC(=O)O)NC(=O)[C@H](CCCCN)NC(=O)[C@@H](N)[C@@H](C)O)C(=O)NCC(=O)N[C@@H](CCCNC(=N)N)C(=O)N[C@@H](Cc1ccccc1)C(=O)N[C@@H](CCC(=O)O)C(=O)N[C@@H](CC(C)C)C(=O)N[C@@H](CO)C(=O)NCC(=O)O [TKD]
fluorescently labeled tumor cells in the lower chamber [1]: 337 ± 38 cells | accumulation of peptide in mHsp70-negative cells [2]: did not detect the accumulation | mean fluorescence intensity (MFI), internalization of FITC-labeled peptide [3]: 2373 ± 201 | mean fluorescence intensity (MFI), internalization of FITC-labeled peptide [4]: 2099 ± 107 | mean fluorescence intensity (MFI), internalization of FITC-labeled peptide (C6 (rat glioma) cells): 2120 ± 152 | internalization/accumulation in tumor cells by confocal microscopy ([5]; Cy5-labeled peptide): internalization of the TKD peptide by tumor cells was noted, reaching maximum absorption of the peptide after 60 minutes
